The subject of series [1] is TRAIL-resistant L3.6pl cells (L3.6plTR). As to the kind of experiment: Cell viability / cell death in TRAIL-resistant cells. In kind it is cell-based. As for the experimental part: (§1) Cells were seeded in a 96-well plate at a density of 4000 to 5000 cells per well (70%-80% confluence) in triplicate. Non-adherent cells were washed with PBS, and different substrate dilutions were added. After 24 hours, 3-(4,5-dimethylthiazol-2-yl)-2,5-diphenyltetrazolium bromide (MTT) assay (Roche, Mannheim, Germany) was performed according to the manufacturer's instructions. Results were measured at 570 nm and background at 650 nm on a microplate reader (Molecular Devices).

For another series, the system named is IL-8, CXCR1, DcR1, c-Jun. The series can be described thus: qRT-PCR of IL-8 axis genes. Particulars: IL-8 treatment. In kind it is cell-based. The method, then: (§2) For total RNA extraction, cells were homogenized with TRIzol (Invitrogen). Phase separation was performed by the addition of chloroform and subsequent centrifugation steps. Aqueous phase of samples was collected, and RNA was precipitated by isopropyl alcohol. After washing, RNA was redissolved in DEPC-treated water, and RNA quality and quantity were measured with a Nanodrop ND-1000 Spectrophotometer (Thermo Scientific). For cDNA synthesis, the iScript Reverse Transcription Supermix (Bio-Rad) was used according to the manufacturer's protocol, and the reaction mix was incubated in a thermal cycler (Bio-Rad MyIQ Single-Color RT-PCR Detection System iCycler) with the following protocol: priming (5 minutes at 25° C.), reverse transcription (30 minutes at 42° C.), and reverse transcription inactivation (5 minutes at 85° C.). qRT-PCR was performed using iQ SYBR Green Supermix (Bio-Rad) according to the following protocol: initial denaturation and enzyme activation (1 cycle at 95° C. for 3 minutes), denaturing (40 cycles at 95° C. for 15 seconds) with annealing and extension (40 cycles at 55° C. for 30 seconds), and melting curve (1 cycle at 55° C.-95° C. in […] for 30 seconds). The Ct (cycle threshold) value was measured in absolute quantification (of cycles of amplification) and compared to β-actin, which served as a housekeeping gene.
In general terms: Real-time PCR tracks product formation cycle by cycle.

Another series deals with L3.6pl cells. As to the kind of experiment: MTT cell viability assay. The conditions noted are these: compared to TRAIL alone. In kind it is cell-based. The method, then: as §1
In general terms: Formazan colour is commonly taken as a measure of viable cells.

A further series relates to p-JNK. As to the kind of experiment: PathScan p-SAPK/JNK sandwich ELISA. In kind it is cell-based. The conditions noted are these: L3.6plTR cells vs untreated control. As for the experimental part:
Protein lysates were obtained from adherent cells or spheres after 1-hour of incubation with JNKi and/or TRAIL. Protein quantification was performed, and PathScan Sandwich ELISA Antibody Pair (Cell Signaling Technologies) was performed according to the manufacturer's instructions.
A general note: In an ELISA, binding on a coated surface is turned into a signal by an enzyme label.

A further series has as its system DcR1. As to the kind of experiment: qRT-PCR of TRAIL decoy receptor. In kind it is cell-based. Particulars: vs control samples. The method, then:
as §2

A further series has as its system DR4 and DR5. As to the kind of experiment: qRT-PCR of TRAIL death receptors. The format is cell-based. The conditions noted are these: vs control samples. The method, then: as §2
A further series relates to IL-8 secretion. As to the kind of experiment: Human CXCL8/IL-8 ELISA of culture supernatant. In kind it is cell-based. The method, then: Cell culture supernatant was obtained after 24-hour treatments in triplicate. A human CXCL8/IL-8 Quantikine ELISA kit (R&D Systems) was used to measure human IL-8 according to the manufacturer's protocol. An IL-8 standard curve was performed to determine concentrations (in pg of cytokine per μL).

Series [2] has as its system adipose tissue-derived stem cells (ASCs). As to the kind of experiment: Differentiation assay of ASCs. In kind it is cell-based, human. As for the experimental part: Adipose tissue-derived stem cells were seeded in the following concentrations: adipogenic differentiation, 1×10^4 cells/cm^2; chondrogenic differentiation, 1.6×10^7 cells/cm2; and osteogenic differentiation, 5×10^3 cells/cm^2. After a 2-hour incubation with 20% FBS-containing medium, cells were washed, and the respective differentiation media were added (Invitrogen StemPro differentiation kits). Differentiation media were changed twice a week. After 14 to 21 days, cells were fixed with 4% formaldehyde for 30 minutes and stained with Oil Red O for lipid vesicles (adipogenic differentiation), Alcian Blue for proteoglycans (chondrogenic differentiation), and Alizarin Red S for calcium deposits (osteogenic differentiation) as reported previously. Bai X, Alt E. “Myocardial regeneration potential of adipose tissue-derived stem cells” Biochemical and Biophysical Research Communications. 401 (2010) 321-6.

The next series relates to MiaPaCa2 tumors. The series can be described thus: Orthotopic MiaPaCa2 tumor model. The format is in vivo, mice. The conditions noted are these: for #tumors at 6 wks: JNKi 1 mg/kg oral 5x/week, TRAIL 1 mg/kg i.p. 2x/week, gemcitabine 80 mg/kg 2x/week; for % tumor presence at 6 wks / Kidney mets / Liver mets / Peritoneal mets / Spleen mets: same regimens; for Kidney mets / Liver mets / Peritoneal mets / Spleen mets: at 6 wks. The method, then: Age-matched male swiss nu/nu mice (6-8 weeks old) were injected orthotopically with pancreatic tumor cells. All procedures were performed in accordance with the guidelines of the Institutional Animal Care and Use Committee at The University of Texas MD Anderson Cancer Center (ACDF Protocol #12-12-12631). Animals were anesthetized with isoflurane anesthesia (1%-3% via inhalation), and an incision was made in the left abdominal flank. The spleen was located and extracted, and 1×10^6 pancreatic cells in 50 μL of PBS were injected into the underlying tail of the pancreas. The abdominal wall was closed with sterile absorbable sutures, and wound clips were applied to the skin. Animals were monitored daily and after two weeks of untreated tumor growth randomly assigned to different treatment groups: control (no treatment), JNKi (1 mg/kg) was administered by oral gavage five times per week; gemcitabine (80 mg/kg) or TRAIL (1 mg/kg) was injected intraperitoneally with a 27-G needle two times per week or JNKi and TRAIL together at the dosages indicated above. Weight, tumor growth, and health status were clinically followed for 4 weeks. At day 42, animals were euthanized, and blood and tissues were collected for postmortem analysis.

Series [3] deals with parental pancreatic cancer cells. As to the kind of experiment: MTT cell viability assay, single agents. In kind it is cell-based. Particulars: JNKi 0.5 μM alone; rhTRAIL 10 ng/mL alone. The method, then:
as §1

Series [4] concerns CSC-enriched pancreatic cancer spheres. As to the kind of experiment: MTT viability assay, spheres versus parental cells. The format is cell-based. Particulars: 25 ng/mL and 50 ng/mL. The method, then: as §1
A further series has as its system L3.6pl parental cells. The series can be described thus: Acridine orange/ethidium bromide staining. The format is cell-based. Particulars: 50 ng/mL, 24 hours. From the text: (§3) According to a protocol adapted from Todaro et al. (supra), attached cells or spheres were washed with PBS, stained with acridine orange/ethidium bromide, and visualized immediately with fluorescent microscopy.

Another series deals with L3.6pl spheres. The series can be described thus: Acridine orange/ethidium bromide staining. In kind it is cell-based. The conditions noted are these: 50 ng/mL, 24 hours.
Source text: as §3

For series [5], the system named is adipose tissue-derived stem cells (ASCs). As to the kind of experiment: MTT proliferation assay of adipose tissue-derived stem cells. Particulars: 10.0 μM or 20.0 μM. In kind it is cell-based, human. The method, then: as §1
For measurement of cell proliferation, cells were seeded into 24-well plates. After 24 hours, cells were washed with PBS, and medium with different dilutions of JNKi was added. Viable cells were then counted daily with a standard trypan blue stain protocol.

The subject of series [6] is CSC-enriched pancreatic cancer spheres. As to the kind of experiment: Sphere forming assay. In kind it is cell-based. The conditions noted are these: high-dose treatment group (control 40%). As for the experimental part: Sphere-forming medium consisted of MEMα supplemented with L-glutamine, putrescine, insulin (all from Sigma-Aldrich), […] (20 ng/mL), basic fibroblast growth factor (10 ng/mL), and B-27 supplement (Gibco). For first generation, attached cells were trypsinized, washed twice with PBS, and seeded in sphere-forming medium as single cell suspensions with clonal density (5,000-10,000 cells/mL) on ultra-low-attachment plates (Corning). After 7 to 10 days, spheres were harvested by gravitation in a tube, trypsinized, washed twice with PBS, and reseeded as described above for the next higher generation. To quantify sphere-forming ability, cells were prepared as described in the preceding paragraph and seeded in 96-well ultra-low-attachment plates at 500 to 1000 cells per well. Medium was supplemented with 1% methylcellulose to prevent cell-cell attachments. Medium was added or renewed every 3 days, and spheres were quantified at day 10 to 12.

The next series is described as follows: MTT cell viability assay. In kind it is cell-based. Particulars: human, low-dose 0.5 μM or 1.0 μM. The method, then: as §1

In the case of “IL-8: interleukin-8 added to cells in combination with TRAIL”, in series [1] (compared to TRAIL alone), the “cell viability / apoptosis in combination with TRAIL” value was “neutralized the apoptosis-inducing power of TRAIL”. In addition, in the series on IL-8, CXCR1, DcR1, c-Jun, the DcR1 expression result is “upregulation of the decoy receptor DcR1”; the “IL-8 and CXCR1 expression” value is “autostimulated IL-8 and CXCR1 expression”. Also, the “cell viability / apoptosis in combination with TRAIL” value in the series with L3.6pl cells is “neutralized the apoptosis-inducing power of TRAIL”.

As to “TRAIL: recombinant human TNF-related apoptosis-inducing ligand from R&D Systems”, in [1] (TRAIL doses up to 100 ng/mL), the cell death result is recorded as “detectable cell death only in small numbers of cells”. In the series with p-JNK, the p-JNK levels result is “increased p-JNK levels”. Also, the “expression of DcR1” value in the series on DcR1 is on record as “increased the expression of the decoy receptor DcR1”. For the same compound, the “expression of DR4 and DR5” value in the series with DR4 and DR5 is “reduced the presence of the apoptosis receptors DR4 and DR5”. The “TRAIL level at peak IL-8 secretion” value in the series on IL-8 secretion (Panc1 cells, 24 hours) worked out at 50 ng/mL. The IL-8 secretion entry in the series with IL-8 secretion (TRAIL with or without JNKi) is reported as “upregulates IL-8 secretion”. The IL-8 production entry with IL-8 secretion (increasing doses of TRAIL, 24 hours) is given as “increased dose-dependently”. Moreover, the “differentiation into osteoblasts, chondrocytes, adipocytes” value in series [2] is given as “functionally unimpaired”. In the series with MiaPaCa2 tumors, the “#tumors at 6 wks” value was 10/10, the “% tumor presence at 6 wks” value was 100%, the Kidney mets is 0 and the Liver mets came out at 2. In addition, in the series on MiaPaCa2 tumors, the Peritoneal mets worked out at 1 and the Spleen mets amounted to 0. Moreover, in series [3], the cell viability result was “only modest effects”. Further, the “resistance of spheres to TRAIL-induced cell death vs parental cells” value in series [4] was “significantly more resistant”. Besides, the apoptosis entry with L3.6pl parental cells is listed as “robust apoptosis”. Also, in the series with L3.6pl spheres, the viability of spheres entry is on record as “almost entirely viable”.

For `Nc1ccn([C@@H]2O[C@H](CO)[C@@H](O)C2(F)F)c(=O)n1` [GEM, Gemcitabine], in the series with MiaPaCa2 tumors, the “#tumors at 6 wks” value was 5/5, the “% tumor presence at 6 wks” value is 100%, the Kidney mets came to 0 and the Liver mets turned out to be 1. In the series with MiaPaCa2 tumors, this compound showed a Peritoneal mets of 1 and a Spleen mets of 3.

One may read the viability as a read-out of living cells in per cent, often relative to untreated cells. Regarding `Oc1c2ccccc2c2c3c(cccc13)N=N2` [JNKi, SP600125], the “cell proliferative capacity, lower compared to untreated ASCs” value in series [5] came to 20%. Also, the “spheres bigger than 150 μm in diameter” value in [6] is on record as 0%. Also, the viability at 24 h in “MTT cell viability assay” (L3.6pl cells, 24 hours) amounted to 80%. This compound also returned a viability at 24 h in the series “MTT cell viability assay” (MiaPaCa2 cells) of 80%. Further, the “differentiation into osteoblasts, chondrocytes, adipocytes” value in series [2] is given as “functionally unimpaired”. For the same compound, in the series on MiaPaCa2 tumors, the “#tumors at 6 wks” value is 4/4, the “% tumor presence at 6 wks” value came out at 100%, the Kidney mets is recorded as 0 and the Liver mets was determined as 1. In the series with MiaPaCa2 tumors, this compound registered a Peritoneal mets of 0 and a Spleen mets of 1.

The record behind these values is patent US10328056B2, “Priming of pancreatic tumor cells and cancer stem cells to TRAIL-induced apoptosis” (Alliance of Cardiovascular Researchers, priority 2014, dated 2019).
